Test results published in US8318769B2, “Substituted sulfonamide compounds” (Gruenethal GmbH, priority 2008, dated 2012).

Legend:
[1] = biological target: T1, human bradykinin 1 receptor (B1R) (Homo sapiens, UniProt P46663); assay: FLIPR Ca2+ assay, B1R antagonism, human; format: cell-based; conditions: 10 μM test substance, CHO K1 cells with human B1R gene (hB1R cells), Lys-Des-Arg9-bradykinin at EC80, % inhibition compared with the maximum achievable inhibition; for inhibition at 10 µM: read-out: B1R antagonism, human [10 μM] % inhibition
T1 construct: expressed in transfected cells
T1 sequence (P46663 1-353): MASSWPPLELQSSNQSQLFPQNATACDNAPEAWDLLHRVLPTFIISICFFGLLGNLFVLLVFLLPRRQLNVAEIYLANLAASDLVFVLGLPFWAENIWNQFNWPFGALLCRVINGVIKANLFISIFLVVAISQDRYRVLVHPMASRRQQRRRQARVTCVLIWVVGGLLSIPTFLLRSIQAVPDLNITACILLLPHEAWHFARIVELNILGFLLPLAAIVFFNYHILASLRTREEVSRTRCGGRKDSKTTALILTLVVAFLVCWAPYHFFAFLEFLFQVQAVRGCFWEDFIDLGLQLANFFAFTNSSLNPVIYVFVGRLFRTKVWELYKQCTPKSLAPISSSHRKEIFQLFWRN
In short: (§1)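 Antagonism is given as % of maximum achievable suppression of agonist-evoked Ca2+ influx, measured by Fluo-4 peak fluorescence in FLIPR. Stable hB1R or rB1R CHO K1 lines received 10 μM compound for 10-20 min before EC80 Lys-Des-Arg9-bradykinin (human) or Des-Arg9-bradykinin (rat).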

[2] = biological target: T2, bradykinin 1 receptor (B1R) of the rat (Rattus norvegicus, UniProt P97583); assay: FLIPR Ca2+ assay, B1R antagonism, rat; format: cell-based; conditions: CHO K1 cells with rat B1R gene (rB1R cells), Des-Arg9-bradykinin at EC80, % inhibition compared with the maximum achievable inhibition; for inhibition at 10 µM: CHO-K1, 10 μM test substance, read-out: B1R antagonism, rat [10 μM] % inhibition; for B1R antagonism, rat [10 μM] % inhibition: 10 μM test substance
T2 construct: expressed in transfected cells
T2 sequence (P97583 1-337): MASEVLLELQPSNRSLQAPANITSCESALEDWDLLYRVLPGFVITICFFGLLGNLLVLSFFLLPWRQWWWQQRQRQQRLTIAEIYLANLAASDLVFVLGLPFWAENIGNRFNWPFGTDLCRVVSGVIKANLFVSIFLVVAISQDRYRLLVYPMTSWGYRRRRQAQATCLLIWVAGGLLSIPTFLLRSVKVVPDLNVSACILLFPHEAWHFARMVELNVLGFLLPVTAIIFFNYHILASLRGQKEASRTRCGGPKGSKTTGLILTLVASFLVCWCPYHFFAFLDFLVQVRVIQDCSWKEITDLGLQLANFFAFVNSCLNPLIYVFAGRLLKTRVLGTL
In short: as §1

COc1cc(C)c(S(=O)(=O)N2CCCC[C@H]2COCC(=O)N2CCC(OCCN3CCCC3)(c3cccc(C(F)(F)F)c3)CC2)c(C)c1 [Example 54, 2-[[(2S)-1-[(4-methoxy-2,6-dimethyl-phenyl)sulfonyl]-piperidin-2-yl]-methoxy]-1-[4-(2-pyrrolidin-1-yl-ethoxy)-4-[3-(trifluoromethyl)phenyl]-piperidin-1-yl]-ethanone]
inhibition at 10 µM [1]: 99%
inhibition at 10 µM [2]: 96%

COc1cc(C)c(S(=O)(=O)N2CCCC[C@H]2COCC(=O)N2CCCC(OCCN3CCCC3)(c3cccnc3)CC2)c(C)c1 (stereo partly drawn) [Example 55, 2-[[(2S)-1-[(4-methoxy-2,6-dimethyl-phenyl)sulfonyl]-piperidin-2-yl]-methoxy]-1-[4-pyridin-3-yl-4-(2-pyrrolidin-1-yl-ethoxy)-azepan-1-yl]-ethanone]
inhibition at 10 µM [1]: 100%
inhibition at 10 µM [2]: 103%

COc1cc(C)c(S(=O)(=O)N2CCCC[C@H]2COCC(=O)N2CCC(OCCN3CCCC3)(c3cccc(Cl)c3)CC2)c(C)c1 [Example 56, 1-[4-(3-chlorophenyl)-4-(2-pyrrolidin-1-yl-ethoxy)-piperidin-1-yl]-2-[[(2S)-1-[(4-methoxy-2,6-dimethyl-phenyl)sulfonyl]-piperidin-2-yl]-methoxy]-ethanone]
inhibition at 10 µM [1]: 99%
inhibition at 10 µM [2]: 100%

COc1cc(C)c(S(=O)(=O)N2CCCC[C@H]2COCC(=O)N2CCC(OCCN3CCCC3)(c3ccncc3)CC2)c(C)c1 [Example 57, 2-[[(2S)-1-[(4-methoxy-2,6-dimethyl-phenyl)sulfonyl]-piperidin-2-yl]-methoxy]-1-[4-pyridin-4-yl-4-(2-pyrrolidin-1-yl-ethoxy)-piperidin-1-yl]-ethanone]
inhibition at 10 µM [1]: 100%
inhibition at 10 µM [2]: 103%

COc1cc(C)c(S(=O)(=O)N(CCOCC(=O)N2CCC(OCC[N+]3(C)CCCC3)(c3cccnc3)CC2)C2CC2)c(C)c1 [Example 58, N-cyclopropyl-4-methoxy-2,6-dimethyl-N-[2-[2-[4-[2-(1-methyl-pyrrolidin-1-ium-1-yl)-ethoxy]-4-pyridin-3-yl-piperidin-1-yl]-2-oxo-ethoxy]-ethyl]-benzenesulfonic acid amide iodide]
inhibition at 10 µM [1]: 100%
inhibition at 10 µM [2]: 104%

COc1cc(C)c(S(=O)(=O)N2CCCC[C@H]2COCC(=O)N2CCC(OCCn3cncn3)(c3cccnc3)CC2)c(C)c1 [Example 59, 2-[[(2S)-1-[(4-methoxy-2,6-dimethyl-phenyl)sulfonyl]-piperidin-2-yl]-methoxy]-1-[4-pyridin-3-yl-4-[2-(1H-[1,2,4]triazol-1-yl)-ethoxy]-piperidin-1-yl]-ethanone]
inhibition at 10 µM [1]: 100%
inhibition at 10 µM [2]: 102%

COc1cc(C)c(S(=O)(=O)N2CCCC[C@H]2COCC(=O)N2CCC(OCCn3ccnc3)(c3cccnc3)CC2)c(C)c1 [Example 60, 1-[4-[2-(1H-imidazol-1-yl)-ethoxy]-4-pyridin-3-yl-piperidin-1-yl]-2-[[(2S)-1-[(4-methoxy-2,6-dimethyl-phenyl)sulfonyl]-piperidin-2-yl]-methoxy]-ethanone]
inhibition at 10 µM [1]: 100%
inhibition at 10 µM [2]: 102%

COc1cc(C)c(S(=O)(=O)N2CCCC[C@H]2COCC(=O)N2CCC(OCCN3CCC3)(c3cccnc3)CC2)c(C)c1 [Example 61, 1-[4-[2-(azetidin-1-yl)-ethoxy]-4-pyridin-3-yl-piperidin-1-yl]-2-[[(2S)-1-[(4-methoxy-2,6-dimethyl-phenyl)sulfonyl]-piperidin-2-yl]-methoxy]-ethanone]
inhibition at 10 µM [1]: 100%
inhibition at 10 µM [2]: 101%

Cc1cccc(Cl)c1S(=O)(=O)N(CCOCC(=O)N1CCC(OCCN2CCCC2)(c2cccc(F)c2)CC1)C1CC1 [Example 62, 2-chloro-N-cyclopropyl-N-[2-[2-[4-(3-fluorophenyl)-4-(2-pyrrolidin-1-yl-ethoxy)-piperidin-1-yl]-2-oxo-ethoxy]-ethyl]-6-methyl-benzenesulfonic acid amide]
inhibition at 10 µM [1]: 100%
inhibition at 10 µM [2]: 102%

COc1cc(C)c(S(=O)(=O)N(C)CCOCC(=O)N2CCC(OCCN3CCCC3)(c3cccnc3)CC2)c(C)c1 [Example 80, 4-methoxy-N,2,6-trimethyl-N-[2-[2-oxo-2-[4-pyridin-3-yl-4-(2-pyrrolidin-1-yl-ethoxy)-piperidin-1-yl]-ethoxy]-ethyl]-benzenesulfonic acid amide]
B1R antagonism, human [10 μM] % inhibition ([1]; 10 µM): 100%
B1R antagonism, rat [10 μM] % inhibition ([2]; 10 µM): 102%

COc1cc(C)c(S(=O)(=O)N(C)CCOCC(=O)N2CCC(OCCN3CCCC3)(c3cccc(F)c3)CC2)c(C)c1 [Example 81, N-[2-[2-[4-(3-fluorophenyl)-4-(2-pyrrolidin-1-yl-ethoxy)-piperidin-1-yl]-2-oxo-ethoxy]-ethyl]-4-methoxy-N,2,6-trimethyl-benzenesulfonic acid amide]
inhibition at 10 µM [1]: 100%
inhibition at 10 µM [2]: 97%

COc1cc(C)c(S(=O)(=O)N2CCCCC2COCC(=O)N2CCC(OCCN3CCCC3)(c3cccnc3)CC2)c(C)c1 (centres unmarked) [Example 82, 2-[[1-[(4-methoxy-2,6-dimethyl-phenyl)sulfonyl]-piperidin-2-yl]-methoxy]-1-[4-pyridin-3-yl-4-(2-pyrrolidin-1-yl-ethoxy)-piperidin-1-yl]-ethanone]
B1R antagonism, human [10 μM] % inhibition ([1]; 10 µM): 100%
B1R antagonism, rat [10 μM] % inhibition [2]: 102%

COc1cc(C)c(S(=O)(=O)N2CCCCC2COCC(=O)N2CCC(OCCN3CCCC3)(c3cccc(F)c3)CC2)c(C)c1 (centres unmarked) [Example 83, 1-[4-(3-fluorophenyl)-4-(2-pyrrolidin-1-yl-ethoxy)-piperidin-1-yl]-2-[[1-[(4-methoxy-2,6-dimethyl-phenyl)sulfonyl]-piperidin-2-yl]-methoxy]-ethanone]
inhibition at 10 µM [1]: 100%
inhibition at 10 µM [2]: 99%

COc1cc(C)c(S(=O)(=O)N2CCCCC2COCC(=O)N2CCC(OCCN3CCCC3)(c3ccncc3)CC2)c(C)c1 (centres unmarked) [Example 84, 2-[[1-[(4-methoxy-2,6-dimethyl-phenyl)sulfonyl]-piperidin-2-yl]-methoxy]-1-[4-pyridin-4-yl-4-(2-pyrrolidin-1-yl-ethoxy)-piperidin-1-yl]-ethanone]
inhibition at 10 µM [1]: 100%
inhibition at 10 µM [2]: 103%

Cc1cccc(Cl)c1S(=O)(=O)N1CCCCC1CCCC(=O)N1CCC(OCCN2CCCC2)(c2cccc(F)c2)CC1 (centres unmarked) [Example 85, 4-[1-[(2-chloro-6-methyl-phenyl)sulfonyl]-piperidin-2-yl]-1-[4-(3-fluorophenyl)-4-(2-pyrrolidin-1-yl-ethoxy)-piperidin-1-yl]-butan-1-one]
inhibition at 10 µM [1]: 100%
inhibition at 10 µM [2]: 98%

COc1cc(C)c(S(=O)(=O)N2CCCCC2CCCC(=O)N2CCC(OCCN3CCCC3)(c3cccnc3)CC2)c(C)c1 (centres unmarked) [Example 87, 4-[1-[(4-methoxy-2,6-dimethyl-phenyl)sulfonyl]-piperidin-2-yl]-1-[4-pyridin-3-yl-4-(2-pyrrolidin-1-yl-ethoxy)-piperidin-1-yl]-butan-1-one]
inhibition at 10 µM [1]: 100%
inhibition at 10 µM [2]: 102%

COc1cc(C)c(S(=O)(=O)N2CCCCC2CCCC(=O)N2CCC(OCCN3CCCC3)(c3cccc(F)c3)CC2)c(C)c1 (centres unmarked) [Example 89, 1-[4-(3-fluorophenyl)-4-(2-pyrrolidin-1-yl-ethoxy)-piperidin-1-yl]-4-[1-[(4-methoxy-2,6-dimethyl-phenyl)sulfonyl]-piperidin-2-yl]-butan-1-one]
inhibition at 10 µM [1]: 100%
inhibition at 10 µM [2]: 99%

COc1cc(C)c(S(=O)(=O)N2CCCCC2CCCC(=O)N2CCC(OCCN3CCCC3)(c3ccncc3)CC2)c(C)c1 (centres unmarked) [Example 90, 4-[1-[(4-methoxy-2,6-dimethyl-phenyl)sulfonyl]-piperidin-2-yl]-1-[4-pyridin-4-yl-4-(2-pyrrolidin-1-yl-ethoxy)-piperidin-1-yl]-butan-1-one]
inhibition at 10 µM [1]: 100%
inhibition at 10 µM [2]: 102%

COc1cc(C)c(S(=O)(=O)N2CCCCC2CCCC(=O)N2CCC(OCCN3CCCC3)(c3ccncc3)CC2)c(C)c1 (centres unmarked) [Example 91, 4-[1-[(4-methoxy-2,6-dimethyl-phenyl)sulfonyl]-piperidin-2-yl]-1-[4-pyridin-4-yl-4-(2-pyrrolidin-1-yl-ethoxy)-piperidin-1-yl]-butan-1-one]
B1R antagonism, human [10 μM] % inhibition [1]: 100%
B1R antagonism, rat [10 μM] % inhibition ([2]; 10 µM): 103%
